Assays:
[1] = system: p-IKKα levels in L363 (NIK translocated multiple myeloma) cells; assay: Effect of compounds on p-IKKα levels in L363 cells (AlphaLISA SureFire Ultra); format: cell-based, human; conditions: Homo sapiens, L-363, 6 h, BAFF stimulated, MG132, 6 h, average of values, read-out: Assay 2 IC50
Experimental: Effect of Compounds on p-IKKα Levels in L363 (NIK Translocated Multiple Myeloma) Cells
All compounds tested were dissolved and serially diluted in DMSO, 1:3 dilution for 11 points in an Echo compatible plate. 100% DMSO was added to columns 12 and 24 of the plate to serve as high and low signal controls. This compound plate was used to spot 20 nL of compound or DMSO into a Greiner 384 well TC plate (781080). The final DMSO concentration was 0.3% (v/v) in cell assays. Human L363 cells (ATCC) were cultured in RPM11640 medium supplemented with GlutaMax, non-essential amino acids, sodium pyruvate and 10% fetal bovine serum. Cells were routinely maintained at densities of […] at 37° C. in a humidified 5% CO2 atmosphere incubator. Cells were passaged twice a week splitting back to obtain the low density. The day before the assay, cells were washed twice in HBSS (Hank's Balanced Salt Solution), resuspended in Dulbecco's Modified Eagle Medium (DMEM)+0.5% IgG and protease free BSA (Jackson Immuno Research Laboratories), +/−250 ng/ml recombinant human B-cell activating factor (BAFF/BLyS/TNFSF13B) and incubated overnight at 37° C. in a humidified 5% CO2 atmosphere (bulk stimulation with or without BAFF). The next day, the cell concentration was adjusted to 1×10^7 cells/ml in DMEM+/−250 ng/ml BAFF+/−10 μM MG132 and plated at 10 μl/well into compound or DMSO spotted 384 well TC plates. Seeded cells were incubated at 37° C. in a humidified 5% CO2 atmosphere for 6 h. After 6 h, the plates were removed from the incubator and cell lysis was achieved by the addition of 2.5 μl 5× lysis buffer containing protease and phosphatase inhibitors, followed by shaking on a plate shaker at room temperature for 15 min. At the end of this incubation, lysed cells were sequentially treated and incubated with acceptor and donor bead mixes according to the manufacturer's protocol for a 1 plate/2-incubation suspension cell assay (AlphaLISA SureFire Ultra p-IKKa (Ser 176/180) Assay Kit (Perkin Elmer). Plates were read using an EnVision® Multilabel Plate Reader (Perkin Elmer). Within an experiment, a concentration response curve for each compound was run in duplicate. The signal obtained in the test wells was normalized using high signal (BAFF stimulated cells, DMSO, MG132) and low signal (unstimulated cells, DMSO) controls. To determine the IC50, a sigmoidal curve was fitted to the plot of % inhibition versus Log10 compound concentration.

[2] = biological target: recombinant human NF-kappaB-inducing kinase (NIK/MAP3K14) (Homo sapiens (Human), UniProt Q99558); assay: Inhibition of auto-phosphorylation of recombinant human NIK/MAP3K14 (AlphaScreen); format: biochemical; conditions: NIK auto-phosphorylation, 5 μM ATP, 1 nM NIK, 2 h at 25° C.; average of values
recombinant human NF-kappaB-inducing kinase (NIK/MAP3K14), sequence (Q99558 whole entry): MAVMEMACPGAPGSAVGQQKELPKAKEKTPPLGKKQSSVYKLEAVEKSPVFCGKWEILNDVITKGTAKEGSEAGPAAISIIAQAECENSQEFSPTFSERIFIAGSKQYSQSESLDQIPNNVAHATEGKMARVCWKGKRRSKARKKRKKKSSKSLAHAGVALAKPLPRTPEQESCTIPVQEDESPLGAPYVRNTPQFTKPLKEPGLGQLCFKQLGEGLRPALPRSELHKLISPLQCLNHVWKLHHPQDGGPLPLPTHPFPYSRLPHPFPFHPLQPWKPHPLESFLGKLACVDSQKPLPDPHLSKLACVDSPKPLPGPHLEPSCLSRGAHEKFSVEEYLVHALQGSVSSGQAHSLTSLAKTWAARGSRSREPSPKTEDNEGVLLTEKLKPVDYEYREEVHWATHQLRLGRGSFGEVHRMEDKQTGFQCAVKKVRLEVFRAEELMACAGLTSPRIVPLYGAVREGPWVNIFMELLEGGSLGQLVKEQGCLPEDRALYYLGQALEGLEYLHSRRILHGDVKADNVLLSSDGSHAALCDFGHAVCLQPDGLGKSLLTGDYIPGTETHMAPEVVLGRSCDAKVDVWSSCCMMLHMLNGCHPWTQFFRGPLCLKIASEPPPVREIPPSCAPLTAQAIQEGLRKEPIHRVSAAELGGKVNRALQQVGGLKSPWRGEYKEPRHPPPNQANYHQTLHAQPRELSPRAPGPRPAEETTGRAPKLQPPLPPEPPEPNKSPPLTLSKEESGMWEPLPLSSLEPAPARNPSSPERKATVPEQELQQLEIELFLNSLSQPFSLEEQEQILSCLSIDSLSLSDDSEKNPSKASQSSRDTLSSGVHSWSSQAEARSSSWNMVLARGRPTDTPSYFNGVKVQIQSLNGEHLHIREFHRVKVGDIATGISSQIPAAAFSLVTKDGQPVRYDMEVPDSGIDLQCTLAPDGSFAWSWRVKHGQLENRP
Experimental: Inhibition of auto-phosphorylation of recombinant human NF-kappaB-inducing kinase (NIK/MAP3K14) activity (AlphaScreen®)
NIK/MAP3K14 auto-phosphorylation activity was measured using the AlphaScreen® (αscreen) format (Perkin Elmer). All compounds tested were dissolved in dimethyl sulfoxide (DMSO) and further dilutions were made in assay buffer. The final DMSO concentration was 0.7% (v/v) in assays. The assay buffer was 50 mM Tris pH 7.5 containing 1 mM EGTA (ethylene glycol tetraacetic acid), 1 mM DTT (dithiothreitol), 0.1 mM Na3VO4, 5 mM MgCl2, and 0.01% Tween® 20. The assays were carried out in 384 well Proxiplates (Perkin Elmer). The incubations consisted of the compound, 5 μM Adenosine-5′-triphosphate (ATP), and 1 nM NIK/MAP3K14. Incubations were initiated by the addition of GST-tagged NIK/MAP3K14 enzyme, carried out for 2 h at 25° C. and terminated by addition of stop buffer containing anti-phospho-IKK Ser176/180 antibody. Protein A Acceptor and Glutathione-Donor beads were added before reading using an EnVision® Multilabel Plate Reader (Perkin Elmer). […] IC50's were determined by fitting a sigmoidal curve to % inhibition of control versus Log10 compound concentration.

IC50 [1] [nM]	IC50 [2] [nM]	Compound
24	0.8	CN1CC[C@@](O)(C#Cc2cccc(-c3cc(NC4CC4)c4ncnc(N)c4n3)c2)C1=O [Example 298, (R)-3-[2-[3-[4-Amino-8-(cyclopropylamino)pyrido[3,2-d]pyrimidin-6-yl]phenyl]ethynyl]-3-hydroxy-1-methyl-pyrrolidin-2-one]
390	4.2	CN1CC[C@@](O)(C#Cc2cccc(-c3ccc4ncnc(N5CCCC5)c4n3)c2)C1=O [Example 222, (R)-3-Hydroxy-1-methyl-3-((3-(4-(pyrrolidin-1-yl)pyrido[3,2-d]pyrimidin-6-yl)phenyl)ethynyl)pyrrolidin-2-one]
> 5000	300	[2H]c1nc(N)c2nc(-c3cccc(C#C[C@]4(O)C(=O)N(C)[C@H]5C[C@H]54)c3)ccc2n1 [Example 275, (1S,4S,5R)-4-((3-(4-Aminopyrido[3,2-d]pyrimidin-6-yl-2-d)phenyl)ethynyl)-4-hydroxy-2-methyl-2-azabicyclo[3.1.0]hexan-3-one]
260	10	Cc1ncnc2ccc(-c3cccc(C#C[C@]4(O)CCN(C)C4=O)c3)nc12 [Example 23, (R)-3-Hydroxy-1-methyl-3-((3-(4-methylpyrido[3,2-d]pyrimidin-6-yl)phenyl)ethynyl)pyrrolidin-2-one]
2.8	0.7	CN1CC[C@@](O)(C#Cc2cccc(-c3cc(C(F)(F)F)c4ncnc(N)c4n3)c2)C1=O [Example 284, (R)-3-((3-(4-Amino-8-(trifluoromethyl)pyrido[3,2-d]pyrimidin-6-yl)phenyl)ethynyl)-3-hydroxy-1-methylpyrrolidin-2-one]
450	210	CC(=O)Nc1nc(C)nc2ccc(-c3cccc(C#C[C@]4(O)CCN(C)C4=O)c3)nc12 [Example 258, (R)—N-(6-(3-((3-Hydroxy-1-methyl-2-oxopyrrolidin-3-yl)ethynyl)phenyl)-2-methylpyrido[3,2-d]pyrimidin-4-yl)acetamide]
300	4.8	CN1CC[C@@](O)(C#Cc2cccc(-c3ccc4ncnc(N5CC(O)C5)c4n3)c2)C1=O [Example 228, (R)-3-Hydroxy-3-((3-(4-(3-hydroxyazetidin-1-yl)pyrido[3,2-d]pyrimidin-6-yl)phenyl)ethynyl)-1-methylpyrrolidin-2-one]
> 5000	350	Cc1nc(N)c2nc(-c3cccc(C#C[C@@](C)(O)c4scnc4C)c3)ccc2n1 [Example 163, (R)-4-(3-(4-Amino-2-methylpyrido[3,2-d]pyrimidin-6-yl)phenyl)-2-(4-methylthiazol-5-yl)but-3-yn-2-ol]
320	4.7	Cc1nc(N)c2nc(-c3cc(C#C[C@]4(O)CCN(C)C4=O)ccc3C)ccc2n1 [Example 150, (R)-3-((3-(4-Amino-2-methylpyrido[3,2-d]pyrimidin-6-yl)-4-methylphenyl)ethynyl)-3-hydroxy-1-methylpyrrolidin-2-one]
> 5000	160	CN1CC[C@](O)(C#Cc2cccc(-c3ncc4ccnc(N)c4n3)c2)C1=O [Example 2, (S)-3-[2-[3-(8-Aminopyrido[3,4-d]pyrimidin-2-yl)phenyl]ethynyl]-3-hydroxy-1-methyl-pyrrolidin-2-one]
380	6.3	Cc1nc(N)c2nc(-c3cccc(C#C[C@@](C)(O)c4ncccn4)c3)ccc2n1 [Example 197, (R)-4-[3-(4-Amino-2-methyl-pyrido[3,2-d]pyrimidin-6-yl)phenyl]-2-pyrimidin-2-yl-but-3-yn-2-ol]
2950	56	Cc1nnc([C@](C)(O)C#Cc2ccc(C)c(-c3ncc4ccnc(N)c4n3)c2)o1 [Example 74, (R)-4-(3-(8-Aminopyrido[3,4-d]pyrimidin-2-yl)-4-methylphenyl)-2-(5-methyl-1,3,4-oxadiazol-2-yl)but-3-yn-2-ol]
